Drawing on patent US20010056184A1, “Pipecolinic acid derivatives, method of manufacturing the same and therapeutic agents containing these compounds” (priority 2000, published 2001), this text covers inhibition and IC50 for twelve molecules.

In general, inhibition refers to the relative decrease from the control value, in per cent. The IC50 is the concentration at which inhibition is half-maximal.

Common to all, as to type: biochemical
The target in experiment [1] is T1, human fibroblasts derived MMP-1 (type I collagenase) (Homo sapiens, UniProt P03956).
T1 construct: human fibroblasts derived MMP-1 (Yagai Co. Ltd.) as enzyme; purchased Yagai Co. Ltd; host or cells: human fibroblasts
T1 sequence (P03956 100-469): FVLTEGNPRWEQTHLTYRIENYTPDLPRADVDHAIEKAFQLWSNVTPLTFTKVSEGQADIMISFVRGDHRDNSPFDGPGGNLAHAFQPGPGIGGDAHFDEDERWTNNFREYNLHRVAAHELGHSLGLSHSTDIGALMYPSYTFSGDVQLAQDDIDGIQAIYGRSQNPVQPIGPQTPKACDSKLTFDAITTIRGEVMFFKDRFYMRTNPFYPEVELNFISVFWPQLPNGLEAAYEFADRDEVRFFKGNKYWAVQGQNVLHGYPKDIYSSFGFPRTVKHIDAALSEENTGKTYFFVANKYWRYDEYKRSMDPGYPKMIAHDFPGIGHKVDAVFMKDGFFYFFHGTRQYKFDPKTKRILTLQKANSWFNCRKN
Put plainly: MMP-1 (type I collagenase) inhibitory activities, fluorogenic substrate enzyme assay. Conditions: for inhibition at 10 µM: at 10^−5M, NE means no effect, read-out: MMP-1 inhibition percent; for IC50: 37° C., 4 h, substrate 10 μM. As to the method: Examination 1: MMP-1 (type I collagenase) inhibitory activities.
Inhibitory activities of MMP-1 (type I collagenase) activities were estimated by enzyme assay using human fibroblasts derived MMP-1 (Yagai Co. Ltd.) as enzyme, and MOCAc-Pro-Leu-Gly-Leu-A2pr(Dnp)-Ala-Arg-NH2 (Peptide Research Center, 3163-v) as substrate. Thus, MMP-1 (0.01 U/ml), test compound (10^−10˜10^−5 M), and the substrate (10 μM) were incubated in 50 mM Tris-HCl buffer (pH 7.4) containing 0.2M NaCl, 10 mM CaCl2, 0.02% NaN3, and 0.05% Brij 35 at 37° C. for 4 h. The reaction was stopped by adding of 4 volumes of sodium acetate buffer (pH 4.0), and the degradation of substrate was calculated by measurement with a fluorescence intensity (λ ex 328 nm, λ em 393 nm). Inhibition of degradation of substrate in the presence of compound was determined by comparison with the degradation percent of substrate in the absence of compound, and concentration of 50% inhibition (IC50 value) was calculated.

The target in a further experiment is T2, MMP-2 (gelatinase A) (Homo sapiens, UniProt P08253).
T2 construct: made in house; host or cells: COS-1 cells (secreted into culture medium)
T2 sequence (P08253 110-660): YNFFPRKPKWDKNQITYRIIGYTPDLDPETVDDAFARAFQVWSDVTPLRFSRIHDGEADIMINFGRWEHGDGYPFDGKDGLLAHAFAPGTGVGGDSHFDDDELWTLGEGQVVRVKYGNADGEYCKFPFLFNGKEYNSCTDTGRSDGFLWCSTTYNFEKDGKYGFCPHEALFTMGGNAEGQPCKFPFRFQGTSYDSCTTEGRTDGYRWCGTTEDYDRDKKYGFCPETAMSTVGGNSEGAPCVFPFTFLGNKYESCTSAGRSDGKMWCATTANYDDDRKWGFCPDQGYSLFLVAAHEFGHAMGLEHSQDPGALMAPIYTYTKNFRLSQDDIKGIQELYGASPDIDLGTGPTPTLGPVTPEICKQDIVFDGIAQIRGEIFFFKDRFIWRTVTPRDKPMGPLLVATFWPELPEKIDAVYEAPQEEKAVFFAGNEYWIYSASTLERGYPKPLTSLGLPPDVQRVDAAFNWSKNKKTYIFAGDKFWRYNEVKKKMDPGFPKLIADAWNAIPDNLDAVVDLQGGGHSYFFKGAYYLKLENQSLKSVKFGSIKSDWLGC
Put plainly: MMP-2 (gelatinase A) inhibitory activities, fluorogenic substrate enzyme assay. Conditions: 42° C., 2 h, substrate 10 μM. On the procedure: (§1) Examination 2: MMP-2 (gelatinase A) and MMP-9 (gelatinase B) inhibitory activities.
(§2) Pro MMP-2 was obtained from culture medium separated from human pro-MMP-2 cDNA tranfected COS-1 cells. Pro MMP-2 activated by 1 mM (4-aminophenyl) mercury acetic acid and MMP-9, derived human fibrosarcome (Yagai Co. Ltd.), were used as enzyme respectively. Inhibition of both enzyme activities were estimated by enzyme assay using MOCAc-Pro-Leu-Gly-Leu-A2pr(Dnp)-Ala-Arg-NH2 (Peptide Research Center, 3163-v) as substrate. Thus, MMP-2 or MMP-9 (0.01 U/ml), test compound (several concentrations), and the substrate (10 μM) were incubated in 50 mM Tris - HCl buffer (pH 7.4) containing 0.2M NaCl, 10 mM CaCl2, 0.02% NaN3, and 0.05% Brij 35 at 42° C. for 2 h (MMP-2), 3 h (MMP-9) respectively. Inhibition of degradation of substrate in the presence of compound was determined by comparison with the degradation of substrate in the absence of compound, and concentration of 50% inhibition (IC50 value) was calculated.

For the next experiment, the target named is T3, MMP-9 (gelatinase B) (Homo sapiens, UniProt P14780).
T3 construct: MMP-9, derived human fibrosarcome (Yagai Co. Ltd.), were used as enzyme respectively; purchased Yagai Co. Ltd; host or cells: human fibrosarcoma
As to the kind of experiment: MMP-9 (gelatinase B) inhibitory activities, fluorogenic substrate enzyme assay. Conditions: for IC50: 42° C., 3 h, substrate 10 μM. As to the method:
as §1, §2

In the next experiment the target is T4, Δ MT1-MMP (Δ MMP-14) (Homo sapiens, UniProt P50281).
T4 construct: ProMT1-MMP cDNA encoded extracellular domain of pro Δ MT1-MMP was tranfected E. coli BL21DE3; made in house; host or cells: E. coli BL21DE3 (inclusion bodies, 8M urea, ion exchange)
Put plainly: Δ MT1-MMP (Δ MMP-14) inhibitory activities, fluorogenic substrate enzyme assay. Conditions: 37° C., 30 min, substrate 10 μM; read-out: ΔMMP-14 IC50. The text has this: Examination 3: Δ MT1-MMP (Δ MMP-14) inhibitory activities.
ProMT1-MMP cDNA encoded extracellular domain of pro Δ MT1-MMP was tranfected E. coli BL21DE3, pro Δ MT1-MMP collected as inclusion body was solved using 8M urea, and it was pulified by ion exchenge column chlomatography. Inhibition of enzyme activities were estimated by enzyme assay using activated Δ MT1-MMP, obtained from activation of pro Δ MT1-MMP by 10 μ/ml tripsine, and MOCAc-Pro-Leu-Gly-Leu-A2pr(Dnp)-Ala-Arg-NH2 (Peptide Research Center, 3163-v) as substrate. Thus, Δ MT1-MMP, test compound (several concentrations), and the substrate (10 μM) were incubated in 50 mM Tris - HCl buffer (pH 7.4) containing 0.2M NaCl, 10 mM CaCl2, 0.02% NaN3, 0.05% Brij 35, and 10 μM leuipeputine at 37° C. for 30 min. The reaction was stopped by adding of 4 volumes of sodium acetate buffer (pH 4.0), and the degradation of substrate was calculated by measurement with a fluorescence intensity (λ ex 328 nm, λ em 393 nm). Inhibition of degradation of substrate in the presence of compound was determined by comparison with the degradation of substrate in the absence of compound, and concentration of 50% inhibition (IC50 value) was calculated.

T3 sequence (P14780 94-707): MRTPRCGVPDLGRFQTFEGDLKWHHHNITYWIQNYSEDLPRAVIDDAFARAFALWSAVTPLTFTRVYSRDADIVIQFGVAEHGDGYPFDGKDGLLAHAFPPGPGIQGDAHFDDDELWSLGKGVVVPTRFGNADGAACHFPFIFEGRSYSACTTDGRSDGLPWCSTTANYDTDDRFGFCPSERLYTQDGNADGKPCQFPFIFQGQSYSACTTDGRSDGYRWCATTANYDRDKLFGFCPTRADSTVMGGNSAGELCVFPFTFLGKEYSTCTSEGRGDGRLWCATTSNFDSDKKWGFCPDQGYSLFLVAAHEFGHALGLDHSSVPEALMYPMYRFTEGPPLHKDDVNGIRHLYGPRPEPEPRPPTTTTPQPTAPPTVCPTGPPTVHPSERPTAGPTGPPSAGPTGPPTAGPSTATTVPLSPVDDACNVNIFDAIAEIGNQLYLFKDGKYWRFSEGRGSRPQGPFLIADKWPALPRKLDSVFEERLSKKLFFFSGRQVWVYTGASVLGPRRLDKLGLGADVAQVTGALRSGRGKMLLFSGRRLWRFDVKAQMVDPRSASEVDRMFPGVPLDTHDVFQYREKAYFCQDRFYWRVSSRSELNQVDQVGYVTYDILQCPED

Regarding `COc1ccc(S(=O)(=O)N2CC[C@@H](NC(=O)CCC(C)C)C[C@@H]2C(=O)NO)cc1` [Compound 45, (2R, 4R)-2-Hydroxyaminocarbonyl-1-(4-methoxybenzenesulfonyl)-4-(4-methylpentanoylamino)-piperidine], the inhibition at 10 µM in experiment [1] is 45.3%. For the same molecule, the results for the 50% inhibitory concentration (IC50) against MMP-2 (gelatinase A), on MMP-9 (gelatinase B) and at Δ MT1-MMP (Δ MMP-14) were 1.7 nM, 1.4 nM and 16 nM, respectively.

For the molecule `COc1ccc(OCCCCC(=O)N[C@@H]2CCN(S(=O)(=O)c3ccc(OC)cc3)[C@@H](C(=O)NO)C2)cc1` [Compound 46, (2R, 4R)-2-Hydroxyaminocarbonyl-1-(4-methoxybenzenesulfonyl)-4-[5-(4-methoxyphenoxy)pentanoylamino]-piperidine], the IC50 in experiment [1] is 7600 nM; against MMP-2 (gelatinase A), 1.5 nM; on MMP-9 (gelatinase B) it was 0.88 nM; on Δ MT1-MMP (Δ MMP-14) it was 4.3 nM.

Consider `COc1ccc(C(=O)N[C@@H]2CCN(S(=O)(=O)c3ccc(OC)cc3)[C@@H](C(=O)NO)C2)cc1` [Compound 47, (2R, 4R)-2-Hydroxyaminocarbonyl-1-(4-methoxybenzenesulfonyl)-4-(4-methoxybenzoylamino)-piperidine], for which the IC50 in experiment [1] worked out at 5500 nM; on MMP-2 (gelatinase A), 1.7 nM; on MMP-9 (gelatinase B) it was 1.3 nM; at Δ MT1-MMP (Δ MMP-14), 3.2 nM.

For `COc1ccc(C(=O)N[C@@H]2CCN(S(=O)(=O)c3ccc(-c4ccc(OC)cc4)cc3)[C@@H](C(=O)NO)C2)cc1` [Compound 48, (2R, 4R)-2-Hydroxyaminocarbonyl-4-(4-methoxybenzoylamino)-1-[4-(4-methoxyphenyl)benzenesulfonyl]-piperidine], the inhibition at 10 µM in experiment [1] was 35.5%. The IC50 on MMP-2 (gelatinase A) is 0.55 nM; at MMP-9 (gelatinase B), 0.4 nM; on Δ MT1-MMP (Δ MMP-14) it was 310 nM.

For the molecule `COc1ccc(-c2ccc(S(=O)(=O)N3CC[C@@H](NC(=O)CCC(C)C)C[C@@H]3C(=O)NO)cc2)cc1` [Compound 49, (2R, 4R)-2-Hydroxyaminocarbonyl-1-[4-(4-methoxyphenyl)benzenesulfonyl]-4-(4-methylpentanoylamino)-piperidine], the IC50 came to 2600 nM in experiment [1], 0.25 nM at MMP-2 (gelatinase A), 0.26 nM against MMP-9 (gelatinase B) and 130 nM at Δ MT1-MMP (Δ MMP-14).

In the case of `COc1ccc(C(=O)N[C@@H]2CCN(S(=O)(=O)c3cccs3)[C@@H](C(=O)NO)C2)cc1` [Compound 50, (2R, 4R)-2-Hydroxyaminocarbonyl-4-(4-methoxybenzoylamino)-1-(2-thiophenesulfonyl)-piperidine], the IC50 in experiment [1] amounted to 8400 nM; against MMP-2 (gelatinase A), 73 nM; at MMP-9 (gelatinase B), 44 nM; at Δ MT1-MMP (Δ MMP-14), 35 nM.

Consider `CC(C)CCC(=O)N[C@@H]1CCN(S(=O)(=O)c2cccs2)[C@@H](C(=O)NO)C1` [Compound 51, (2R, 4R)-2-Hydroxyaminocarbonyl-4-(4-methylpentanoylamino)-1-(2-thiophenesulfonyl)-piperidine], for which the 50% inhibitory concentration (IC50) in experiment [1] stood at 6.5 nM; against MMP-2 (gelatinase A), 80 nM; against MMP-9 (gelatinase B), 75 nM; on Δ MT1-MMP (Δ MMP-14), 31 nM.

Take `COc1ccc(-c2cccc(S(=O)(=O)N3CC[C@@H](NC(=O)CCC(C)C)C[C@@H]3C(=O)NO)c2)cc1` [Compound 52, (2R, 4R)-2-Hydroxyaminocarbonyl-1-[3-(4-methoxyphenyl)benzenesulfonyl]-4-(4-methylpentanoylamino)-piperidine]: the inhibition at 10 µM in experiment [1] was found to be 48.9%. Besides, the IC50 at MMP-2 (gelatinase A) stood at 210 nM; on MMP-9 (gelatinase B), 420 nM; at Δ MT1-MMP (Δ MMP-14), 79 nM.

`CC(C)CCC(=O)N[C@@H]1CCN(S(=O)(=O)c2cccc(-c3ccc(O)cc3)c2)[C@@H](C(=O)NO)C1` [Compound 53, (2R, 4R)-2-Hydroxyaminocarbonyl-1-[3-(4-hydroxyphenyl)benzenesulfonyl]-4-(4-methylpentanoylamino)-piperidine]: the inhibition at 10 µM in experiment [1] amounted to 53%. The IC50 was 960 nM at MMP-2 (gelatinase A), 6900 nM against MMP-9 (gelatinase B) and 2000 nM at Δ MT1-MMP (Δ MMP-14).

For the molecule `COc1ccc(-c2ccccc2S(=O)(=O)N2CC[C@@H](NC(=O)CCC(C)C)C[C@@H]2C(=O)NO)cc1` [Compound 54, (2R, 4R)-2-Hydroxyaminocarbonyl-1-[2-(4-methoxyphenyl)benzenesulfonyl]-4-(4-methylpentanoylamino)-piperidine], in experiment [1], the inhibition at 10 µM was 45.8%. The results for the IC50 at MMP-2 (gelatinase A), on MMP-9 (gelatinase B) and on Δ MT1-MMP (Δ MMP-14) were 380 nM, 1800 nM and 200 nM, respectively.

As for `CC(C)CCC(=O)N[C@@H]1CCN(S(=O)(=O)c2ccccc2-c2ccc(O)cc2)[C@@H](C(=O)NO)C1` [Compound 55, (2R, 4R)-2-Hydroxyaminocarbonyl-1-[2-(4-hydroxyphenyl)benzenesulfonyl]-4-(4-methylpentanoylamino)-piperidine], the inhibition at 10 µM in experiment [1] was determined as 29.5%; at MMP-9 (gelatinase B) (at 10^−5M, read-out: MMP-9 inhibition percent), 34.8%. In addition, the IC50 on MMP-2 (gelatinase A) was 2400 nM; on Δ MT1-MMP (Δ MMP-14) it was 3000 nM.

With `COc1ccc(-c2ccc(S(=O)(=O)N3CC[C@@H](NCc4ccccc4)C[C@@H]3C(=O)NO)cc2)cc1` [Compound 56, (2R, 4R)-4-Benzylamino-2-hydroxyaminocarbonyl-1-[4-(4-methoxyphenyl)benzenesulfonyl]-piperidine], the concentration for half-maximal inhibition (IC50) in experiment [1] worked out at 1300 nM; at MMP-2 (gelatinase A) it was 0.49 nM; against MMP-9 (gelatinase B), 0.36 nM; on Δ MT1-MMP (Δ MMP-14) it was 16 nM.
